Our source for the Activity and Km values is ChEMBL document CHEMBL2074016, “Comparative studies on in vitro methods for evaluating in vivo function of MDR1 P-glycoprotein” (Pharm Res, 2001).

Data set [1] concerns the target P-glycoprotein 1 and 3 (MDR1a/MDR1b) (Mus musculus, UniProt P21447+P06795). Description: TP_TRANSPORTER: increase in brain concentration in mdr1a/1b(-/-) mouse. It is filed as functional, organism-based. Conditions: in vivo.
Data set [2] concerns the target T1, ATP-dependent translocase ABCB1 (Homo sapiens, UniProt P08183). Description: TP_TRANSPORTER: transepithelial transport (apical to basal) of Daunorubicin (Daunomycin) at a concentration of 200 nM in MDR1-expressing LLC-PK1 cells. Conditions: pig, llc-pk1, 0.2 µM. The data set is classed as functional, cell-based.
For data set [3], the target named is T1, ATP-dependent translocase ABCB1. Description: TP_TRANSPORTER: transepithelial transport (apical to basal) of Loperamide at a concentration of 1 uM in MDR1-expressing LLC-PK1 cells. The data set is classed as functional, cell-based. As to conditions: pig, llc-pk1, 1 µM.
The target in data set [4] is ATP-dependent translocase ABCB1 (P-glycoprotein) (Homo sapiens, UniProt P08183). Description: (§1) TP_TRANSPORTER: ATP hydrolysis in membrane fraction from High Five (BTI-TN5B1-4) cells. As to conditions: membrane fraction from High Five (BTI-TN5B1-4) cells. The data set is classed as functional, cell membranes, BTI-TN-5B1-4.
The subject of data set [5] is CN1C(=O)CN=C(c2ccccc2)c2cc(Cl)ccc21. The data set is described as §1. The data set is classed as functional, cell membranes, BTI-TN-5B1-4.
The target in data set [6] is T1, ATP-dependent translocase ABCB1. Described as §1. It is filed as functional, cell membranes, BTI-TN-5B1-4. As to conditions: bti-tn-5b1-4.
Data set [7] shares this target. Put plainly: TP_TRANSPORTER: transepithelial transport (apical to basal) of Vinblastine at a concentration of 22.5 nM in MDR1-expressing LLC-PK1 cells. It is filed as functional, cell-based. As to conditions: pig.
Data set [8] has the same target. Put plainly: TP_TRANSPORTER: transepithelial transport (apical to basal) of Dexamethasone at a concentration of 24.7 nM in MDR1-expressing LLC-PK1 cells. The data set is classed as functional, cell-based. As to conditions: pig, llc-pk1, 0.0247 µM.
Data set [9] shares this target. Put plainly: TP_TRANSPORTER: transepithelial transport (apical to basal) of Progesterone at 7 nM in MDR1-expressing LLC-PK1 cells. Conditions: pig, llc-pk1, 0.007 µM. The data set is classed as functional, cell-based.
The target is the same in data set [10]. Description: TP_TRANSPORTER: transepithelial transport (apical to basal) of Digoxin at a concentration of 52.6 nM in MDR1-expressing LLC-PK1 cells. The data set is classed as functional, cell-based. Conditions: pig, llc-pk1, 0.0526 µM.

T1 sequence (P08183 whole entry): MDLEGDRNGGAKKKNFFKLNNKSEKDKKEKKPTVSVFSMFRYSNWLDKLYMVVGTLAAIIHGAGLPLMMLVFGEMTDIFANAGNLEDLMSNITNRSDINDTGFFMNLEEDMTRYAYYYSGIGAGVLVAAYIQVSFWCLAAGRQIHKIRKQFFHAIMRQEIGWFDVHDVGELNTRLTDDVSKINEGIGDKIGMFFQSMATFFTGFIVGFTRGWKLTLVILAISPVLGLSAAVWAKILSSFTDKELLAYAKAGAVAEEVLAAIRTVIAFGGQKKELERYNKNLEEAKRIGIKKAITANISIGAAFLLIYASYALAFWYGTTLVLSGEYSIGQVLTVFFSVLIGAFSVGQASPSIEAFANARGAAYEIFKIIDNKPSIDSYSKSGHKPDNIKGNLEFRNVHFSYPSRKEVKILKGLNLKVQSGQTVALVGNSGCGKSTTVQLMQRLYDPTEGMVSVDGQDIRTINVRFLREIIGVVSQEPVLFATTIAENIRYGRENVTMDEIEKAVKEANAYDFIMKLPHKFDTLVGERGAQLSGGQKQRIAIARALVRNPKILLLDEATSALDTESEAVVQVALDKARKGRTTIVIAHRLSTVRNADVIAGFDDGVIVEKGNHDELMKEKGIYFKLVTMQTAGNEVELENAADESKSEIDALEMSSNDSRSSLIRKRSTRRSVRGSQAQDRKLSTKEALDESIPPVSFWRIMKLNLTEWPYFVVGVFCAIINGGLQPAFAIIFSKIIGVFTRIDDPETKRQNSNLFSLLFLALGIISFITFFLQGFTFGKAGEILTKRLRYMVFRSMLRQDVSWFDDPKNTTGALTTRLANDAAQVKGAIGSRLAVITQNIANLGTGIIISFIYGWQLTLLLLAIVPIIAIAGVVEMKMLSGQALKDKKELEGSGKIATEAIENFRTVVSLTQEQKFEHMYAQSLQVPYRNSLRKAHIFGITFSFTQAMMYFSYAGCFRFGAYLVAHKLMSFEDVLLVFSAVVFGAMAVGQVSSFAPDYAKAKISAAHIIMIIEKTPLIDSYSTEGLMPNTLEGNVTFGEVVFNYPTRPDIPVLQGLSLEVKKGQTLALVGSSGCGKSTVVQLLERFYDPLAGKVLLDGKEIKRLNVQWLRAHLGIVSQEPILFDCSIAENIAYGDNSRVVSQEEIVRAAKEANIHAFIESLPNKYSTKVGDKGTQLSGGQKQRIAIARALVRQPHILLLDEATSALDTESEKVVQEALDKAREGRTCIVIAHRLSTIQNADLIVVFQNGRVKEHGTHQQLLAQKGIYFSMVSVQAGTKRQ
ATP-dependent translocase ABCB1 (P-glycoprotein), sequence (P08183 whole entry): as above

For the compound `COc1cccc2c1C(=O)c1c(O)c3c(c(O)c1C2=O)C[C@@](O)(C(C)=O)C[C@@H]3O[C@H]1C[C@H](N)[C@H](O)[C@H](C)O1` [DAUNORUBICIN], the Activity result in data set [1] and in data set [2] was “substrate [+]” throughout. Regarding `CN(C)C(=O)C(CCN1CCC(O)(c2ccc(Cl)cc2)CC1)(c1ccccc1)c1ccccc1` [LOPERAMIDE], in [3], the Activity entry is “substrate [+]”. Also, the Michaelis constant (Km) in data set [4] was found to be 13.8 µM. For the compound “ATP-dependent translocase ABCB1 (Homo sapiens)”, the Km in data set [5] turned out to be 72.4 µM. `CN/C(=N/CCSCc1nc[nH]c1C)NC#N` [CIMETIDINE]: the Activity result in [6] is “is not a substrate [-]”. As for `C[C@]12CC[C@@H]3c4ccc(O)cc4CC[C@H]3[C@@H]1CC[C@@H]2O[C@@H]1O[C@H](C(=O)O)[C@@H](O)[C@H](O)[C@H]1O` [ESTRADIOL 17B GLUCURONIDE], the Activity result in [6] was “substrate [+]”. On to `CC[C@]1(O)C[C@@H]2CN(CCc3c([nH]c4ccccc34)[C@@](C(=O)OC)(c3cc4c(cc3OC)N(C)[C@H]3[C@@](O)(C(=O)OC)[C@H](OC(C)=O)[C@]5(CC)C=CCN6CC[C@]43[C@@H]65)C2)C1` [VINBLASTINE], for which the Activity result in [7] is “substrate [+]”. Consider `C[C@@H]1C[C@H]2[C@@H]3CCC4=CC(=O)C=C[C@]4(C)[C@@]3(F)[C@@H](O)C[C@]2(C)[C@@]1(O)C(=O)CO` [DEXAMETHASONE], for which the Activity result in data set [8] was “substrate [+]”; in data set [6] it was “is not a substrate [-]”. Take `CC(=O)[C@H]1CC[C@H]2[C@@H]3CCC4=CC(=O)CC[C@]4(C)[C@H]3CC[C@]12C` [PROGESTERONE]: the Activity entry in data set [9] is “is not a substrate [-]”. For `C[C@H]1O[C@@H](O[C@H]2[C@@H](O)C[C@H](O[C@H]3[C@@H](O)C[C@H](O[C@H]4CC[C@@]5(C)[C@H](CC[C@@H]6[C@@H]5C[C@@H](O)[C@]5(C)[C@@H](C7=CC(=O)OC7)CC[C@]65O)C4)O[C@@H]3C)O[C@@H]2C)C[C@H](O)[C@@H]1O` [DIGOXIN], the Activity result in [10] is “substrate [+]”.
